Experimental data: paper PMC11084256, “Penifuranone A: A Novel Alkaloid from the Mangrove Endophytic Fungus Penicillium crustosum SCNU-F0006” (International Journal of Molecular Sciences, 2024)
Converted amounts (≈) assume the structure as drawn. Read-outs that look alike come from different tables or passages of the source.

Legend:
[1] = system: Banana Colletotrichum gloeosporioides; test: Antifungal MIC, broth dilution method; assay type: cell-based; settings: 72 h, means from three parallel experiments; for MIC: Colletotrichum gloeosporioides, read-out: minimum inhibitory concentration (MIC) against Banana Colletotrichum gloeosporioides
Procedure: (§1) The bioactivity test screened the following four phytopathogenic microorganisms: Fusarium oxysporum; Penicillium italicum; Banana Colletotrichum gloeosporioides; and Colletrichum litchi Trag. The minimum inhibitory concentration (MIC) was determined using the broth dilution method, with a minor modification. Fungi were removed from the refrigerator and cultured dynamically at a constant temperature in Potato Dextrose Broth at room temperature for 72 h. The fungal liquid was diluted with broth to 0.5 McFarland turbidity. The sample was prepared into an initial solution of 1 mg/mL with dimethyl sulfoxide (DMSO), and the concentrations of the 1st to 12th wells of the 96-well plate sample group were made by the double dilution method (mg/mL): 1, 0.5, 0.25, 0.125, and 0.0625. Each plate also contained a positive control (ciprofloxacin or carbendazim), as well as a sterile control and growth control (containing broth and fungal liquid, no compound). The plates were incubated at 35 °C for 72 h. The use of 10 μL of a solution with a concentration of 11 mg/mL of Esazurin added to each well of a 96-well plate, followed by incubation at 37 °C for 3 h, allowed for the observation of color changes to determine the minimum inhibitory concentration (MIC) values.

Fusarium oxysporum = test: Antifungal MIC, broth dilution method; assay type: cell-based; settings: 72 h, means from three parallel experiments; for MIC: Fusarium oxysporum, read-out: minimum inhibitory concentration (MIC) against Fusarium oxysporum
Procedure: as §1

Penicillium italicum = test: Antifungal MIC, broth dilution method; assay type: cell-based; settings: 72 h, means from three parallel experiments; for MIC: Penicillium italicum, read-out: minimum inhibitory concentration (MIC) against Penicillium italicum
Procedure: as §1

Colletrichum litchi Tra = test: Antifungal MIC, broth dilution method; assay type: cell-based, Colletrichum litchi Trag; settings: 72 h, means from three parallel experiments; for MIC: read-out: minimum inhibitory concentration (MIC) against Colletrichum litchi Tra
Procedure: as §1

[2] = system: Escherichia coli (ATCC 25922); test: Antibacterial MIC, broth dilution method; assay type: cell-based; settings: mean from three parallel experiments; for MIC: Escherichia coli, ATCC25922, 24 h, read-out: minimum inhibitory concentration (MIC) against Escherichia coli
Procedure: (§2) The bioactivity test screened the following four human pathogenic microorganisms: Pseudomonas aeruginosa (ATCC 9027); Salmonella typhimurium (ATCC 6539); Escherichia coli (ATCC 25922); and Staphylococcus aureus (ATCC 12598). The minimum inhibitory concentration was determined using the broth dilution method, with a minor modification. Bacteria were removed from the refrigerator and cultured dynamically at a constant temperature in a Mueller–Hinton Broth at room temperature for 24 h. The bacterial liquid was diluted with broth to 0.5 McFarland turbidity. The sample was prepared into an initial solution of 1 mg/mL with dimethyl sulfoxide (DMSO), and the concentrations of the 1st to 12th wells of the 96-well plate sample group were made by the double dilution method (mg/mL): 1, 0.5, 0.25, 0.125, and 0.0625. Each plate also contained a positive control (ciprofloxacin or carbendazim), as well as a sterile control and growth control (containing broth and bacterial liquid, no compound). The plates were incubated at 35 °C for 24 h. The use of 10 μL of a solution with a concentration of 11 mg/mL of Esazurin added to each well of a 96-well plate, followed by incubation at 37 °C for 3 h, allowed for the observation of color changes to determine the minimum inhibitory concentration (MIC) values.

[3] = system: Pseudomonas aeruginosa (ATCC 9027); test: Antibacterial MIC, broth dilution method; assay type: cell-based; settings: mean from three parallel experiments; for MIC: Pseudomonas aeruginosa, ATCC9027, 24 h, read-out: minimum inhibitory concentration (MIC) against Pseudomonas aeruginosa
Procedure: as §2

[4] = system: Salmonella typhimurium (ATCC 6539); test: Antibacterial MIC, broth dilution method; assay type: cell-based; settings: 24 h, mean from three parallel experiments; for MIC: Salmonella enterica, read-out: minimum inhibitory concentration (MIC) against Salmonella typhimurium
Procedure: as §2

[5] = system: Staphylococcus aureus (ATCC 12598); test: Antibacterial MIC, broth dilution method; assay type: cell-based; settings: mean from three parallel experiments; for MIC: Staphylococcus aureus, ATCC12598, 24 h, read-out: minimum inhibitory concentration (MIC) against Staphylococcus aureus
Procedure: as §2

[6] = system: NO production in LPS-stimulated RAW 264.7 cells; test: Inhibition of LPS-stimulated NO production, Griess assay; assay type: cell-based; settings: LPS (1 μg/mL)-stimulated RAW 264.7 cells
Procedure: Compounds 1–2 were evaluated for their inhibitory effects on LPS-stimulated NO production in RAW 264.7 cells using the Griess assay. The cell line RAW 264.7, obtained from the Cell Bank of the Chinese Academy of Sciences (CBCAS) in Shanghai, China, was propagated in Dulbecco’s Modified Eagle Medium (DMEM) supplemented with 10% Fetal Bovine Serum (FBS). In the logarithmic growth phase, the cells were digested with trypsin and inoculated into 96-well plates (1 × 10^5/well). After being cultured at 37 °C with 5% CO2 for 12 h, the cells were treated with DMEM containing different concentrations of compounds (0, 3.125, 6.25, 12.5, 25, 50, and 100 μM). Two hours later, the cells were treated with LPS at a concentration of […] (1 μg/mL) and incubated under standard cell culture conditions for a period of 24 h. Fifty microliters of cell supernatant was mixed with an equal volume of Griess reagent (1% anhydrous p-aminobenzene sulfonic acid and 0.1% N-1-naphthalene ethylenediamine hydrochloride in 5% concentrated phosphoric acid). Absorbance was measured with a microplate reader at 540 nm. The IC50 values were calculated using the SPSS 25.0 statistical software analysis package based on the inhibition rate of each group.

[7] = MTT cell viability (cytotoxicity); assay type: cell-based; settings: mouse; for IC50 at 24 h: MTT assay, read-out: cytotoxic effects on RAW 264.7 cells (IC50)
Procedure: (§3) The MTT method was utilized to assess cell viability. RAW 264.7 cells, at a concentration of 5 × 10^5 cells/mL, were plated in 96-well plates and exposed to lipopolysaccharide (LPS, at 1 μg/mL) in the presence or absence of the test compounds for a duration of 24 h. Following this, 100 μL of a 2 mg/mL MTT solution was introduced into each well, and after a 4 h incubation, the resulting formazan precipitates were dissolved in 100 μL of DMSO. The optical density was then determined at 490 nm using a microplate reader (Multiskan GO, Thermo Scientific, Waltham, MA, USA). The results were presented as the average percentage of cell viability relative to the untreated control group.

DPPH scavenging assay = settings: 30 min at 37 °C in the dark, read-out: Radical Scavenging Activity (IC50)
Procedure: The assay for scavenging 1,1-Diphenyl-2-picrylhydrazyl radical 2,2-Diphenyl-1-(2,4,6-trinitrophenyl)hydrazyl (DPPH free radicals) was conducted following a previously established modified protocol. The DPPH was dissolved in ethanol to prepare a 0.5 mmol/L DPPH ethanolic solution (10 mL), which was stored away from light. Subsequently, 100 μL of the DPPH solution was added to each well of a 96-well plate. The sample was prepared into an initial solution of 200 μM with ethanol, and the concentrations of the 1st to 12th wells of the 96-well plate sample group were made by the double dilution method (μM): 200,100, 50, 25, and 12.5 μM. The reaction was monitored by measuring the absorbance at 490 nm using a microplate reader (iMark, Bio-Rad, Hercules, CA, USA) after shaking the reaction for 30 min at 37 °C in the dark. The DPPH radical scavenging activity was determined by a comparison of the absorbance of the samples and a blank control. Vitamin C was used as a positive control at the same concentration as the other samples.

RAW 264.7 cells = test: MTT cell viability (cytotoxicity); assay type: cell-based; settings: RAW 264.7 cells
Procedure: as §3

[8] = RAW 264.7 cells, MTT, evaluated with cell viability at 50 μM, read-out: Cytotoxicity (CC50)

## C[C@H]1OC(=O)C(CC2=C(O)[C@@H](C)OC2=O)=C1O [Compound 2, (+) - (5R, 5′R) - 3,3′-methylenebistetronic acid]
[1]
  MIC: > 1000 µg/mL
Fusarium oxysporum
  MIC: 250 µg/mL (≈ 1040 µM)
Penicillium italicum
  MIC: 250 µg/mL (≈ 1040 µM)
Colletrichum litchi Tra
  MIC: 500 µg/mL (≈ 2080 µM)
[2]
  MIC: 1000 µg/mL (≈ 4160 µM)
[3]
  MIC: 500 µg/mL (≈ 2080 µM)
[4]
  MIC: 1000 µg/mL (≈ 4160 µM)
[5]
  MIC: > 1000 µg/mL
[6]; Mus musculus, RAW264.7, 24 h
  IC50: 37 ± 0.88 µM
[7]; RAW 264.7 cells
  IC50 at 24 h: > 50 µM
[7]; [8]
  CC50 at 24 h: > 50 µM
DPPH scavenging assay
  IC50: 120 µM

## O=c1[nH]c2ccccc2c(-c2ccccc2)c1O [Compound 4, 3-hydroxy-4-phenylquinolin-2(1H)-one]
[1]
  MIC: > 1000 µg/mL
Fusarium oxysporum
  MIC: 250 µg/mL (≈ 1050 µM)
Penicillium italicum
  MIC: 250 µg/mL (≈ 1050 µM)
Colletrichum litchi Tra
  MIC: 1000 µg/mL (≈ 4210 µM)
[2]
  MIC: > 1000 µg/mL
[3]
  MIC: 500 µg/mL (≈ 2110 µM)
[4]
  MIC: 1000 µg/mL (≈ 4210 µM)
[5]
  MIC: 1000 µg/mL (≈ 4210 µM)
[7]; RAW 264.7 cells
  IC50 at 24 h: < 50 µM
[7]; [8]
  CC50 at 24 h: < 50 µM
DPPH scavenging assay
  IC50: > 200 µM

## 3-hydroxy-4-(3-hydroxyphenyl)quinolin-2(1H)-one [Compound 3]
[1]
  minimum inhibitory concentration (MIC) against Banana Colletotrichum gloeosporioides: >1000 µg/mL
Fusarium oxysporum
  minimum inhibitory concentration (MIC) against Fusarium oxysporum: 250 µg/mL
Penicillium italicum
  minimum inhibitory concentration (MIC) against Penicillium italicum: 500 µg/mL
Colletrichum litchi Tra
  minimum inhibitory concentration (MIC) against Colletrichum litchi Tra: 1000 µg/mL
[2]; 24 h
  minimum inhibitory concentration (MIC) against Escherichia coli: 1000 µg/mL
[3]; 24 h
  minimum inhibitory concentration (MIC) against Pseudomonas aeruginosa: 125 µg/mL
[4]
  minimum inhibitory concentration (MIC) against Salmonella typhimurium: 1000 µg/mL
[5]; 24 h
  minimum inhibitory concentration (MIC) against Staphylococcus aureus: >1000 µg/mL
RAW 264.7 cells; MTT assay, read-out: cytotoxic effects on RAW 264.7 cells (IC50)
  IC50: < 50 µM
RAW 264.7 cells; MTT, evaluated with cell viability at 50 μM
  CC50: < 50 µM
DPPH scavenging assay
  IC50: > 200 µM

## COC(=O)Nc1nc2ccccc2[nH]1 [Carbendazim, reference compound]
[1]
  MIC: < 30 µg/mL
Fusarium oxysporum
  MIC: < 30 µg/mL
Penicillium italicum
  MIC: < 30 µg/mL
Colletrichum litchi Tra
  MIC: < 30 µg/mL

## O=C1O[C@H]([C@@H](O)CO)C(O)=C1O [Vitamin C, reference compound]
DPPH scavenging assay
  IC50: 68.4 µM

## CC1OC(=O)C(C2CCNC3=C2C(=O)OC3C)=C1O (stereo not shown) [Compound 1, penifuranone A]
[1]
  MIC: > 1000 µg/mL
Fusarium oxysporum
  MIC: 250 µg/mL (≈ 942 µM)
Penicillium italicum
  MIC: 250 µg/mL (≈ 942 µM)
Colletrichum litchi Tra
  MIC: 1000 µg/mL (≈ 3770 µM)
[2]
  MIC: 1000 µg/mL (≈ 3770 µM)
[3]
  MIC: 500 µg/mL (≈ 1880 µM)
[4]
  MIC: 1000 µg/mL (≈ 3770 µM)
[5]
  MIC: > 1000 µg/mL
[6]; 24 h
  IC50: 42.2 ± 2.26 µM
[6]; Mus musculus, RAW264.7, 24 h
  IC50: 42.2 µM
[7]; RAW 264.7 cells
  IC50 at 24 h: > 50 µM
[7]; [8]
  CC50 at 24 h: > 50 µM
DPPH scavenging assay
  IC50: 180 µM
other
  melting point: 156.7 to 158.2 °C

## CCCCCCCCCCCCCCCC(=O)OC1=C([C@@H]2CCN(C(=O)CCCCCCCCCCCCCCC)C3=C2C(=O)O[C@@H]3C)C(=O)O[C@@H]1C [Compound 1a]
[1]
  MIC: > 1000 µg/mL
Fusarium oxysporum
  MIC: 250 µg/mL (≈ 337 µM)
Penicillium italicum
  MIC: 125 µg/mL (≈ 168 µM)
Colletrichum litchi Tra
  MIC: 1000 µg/mL (≈ 1350 µM)
[2]
  MIC: > 1000 µg/mL
[3]
  MIC: 125 µg/mL (≈ 168 µM)
[4]
  MIC: 1000 µg/mL (≈ 1350 µM)
[5]
  MIC: > 1000 µg/mL
[7]; RAW 264.7 cells
  IC50 at 24 h: < 50 µM
[7]; [8]
  CC50 at 24 h: < 50 µM
DPPH scavenging assay
  IC50: > 200 µM
other
  melting point: 76.6 to 77.2 °C

## COc1ccc2c(c1)c(CC(=O)O)c(C)n2C(=O)c1ccc(Cl)cc1 [Indomethacin, reference compound]
[6]; Mus musculus, RAW264.7, 24 h
  IC50: 35.8 ± 5.7 µM
[7]
  CC50 at 24 h: > 50 µM

## C[C@@H]1C[C@H]2[C@@H]3CCC4=CC(=O)C=C[C@]4(C)[C@@]3(F)[C@@H](O)C[C@]2(C)[C@@]1(O)C(=O)CO [Dexamethasone, reference compound]
[6]; Mus musculus, RAW264.7, 24 h
  IC50: 58.2 ± 1.74 µM
[7]; [8]
  CC50 at 24 h: > 50 µM

## O=C(O)c1cn(C2CC2)c2cc(N3CCNCC3)c(F)cc2c1=O [Ciprofloxacin, reference compound]
[2]
  MIC: < 30 µg/mL
[3]
  MIC: < 30 µg/mL
[4]
  MIC: < 30 µg/mL
[5]
  MIC: < 30 µg/mL
